The values below are quoted from earlier work in patent US20130177630A1 (priority 2012, published 2013).

The subject of this series is fibrolamellar hepatocellular carcinoma. To be noted: patient with fibrolamellar hepatocellular carcinoma.

Take `O=C(O)C(=O)CBr` [3-bromopyruvate]: the side effects result is recorded as “severe side effects” and the “treatment outcome (survival)” value was “life-extension characteristics”.
